According to patent publication US20220009906A1, “ISOINDOLIN-1-ONE DERIVATIVES USEFUL AS GRK2 INHIBITORS” (priority 2020, published 2022):

Key:
[1] = biological target: T1, GRK2 (Homo sapiens, UniProt P25098); experiment: GRK2 Transcreener Assay; assay type: biochemical; details: Biological Example 2 GRK2 Transcreener IC50 (μM), 10 nM GRK2; 10 μM ATP; 150 μM peptide substrate; multiple measurements listed individually
T1 sequence (P25098 1-689): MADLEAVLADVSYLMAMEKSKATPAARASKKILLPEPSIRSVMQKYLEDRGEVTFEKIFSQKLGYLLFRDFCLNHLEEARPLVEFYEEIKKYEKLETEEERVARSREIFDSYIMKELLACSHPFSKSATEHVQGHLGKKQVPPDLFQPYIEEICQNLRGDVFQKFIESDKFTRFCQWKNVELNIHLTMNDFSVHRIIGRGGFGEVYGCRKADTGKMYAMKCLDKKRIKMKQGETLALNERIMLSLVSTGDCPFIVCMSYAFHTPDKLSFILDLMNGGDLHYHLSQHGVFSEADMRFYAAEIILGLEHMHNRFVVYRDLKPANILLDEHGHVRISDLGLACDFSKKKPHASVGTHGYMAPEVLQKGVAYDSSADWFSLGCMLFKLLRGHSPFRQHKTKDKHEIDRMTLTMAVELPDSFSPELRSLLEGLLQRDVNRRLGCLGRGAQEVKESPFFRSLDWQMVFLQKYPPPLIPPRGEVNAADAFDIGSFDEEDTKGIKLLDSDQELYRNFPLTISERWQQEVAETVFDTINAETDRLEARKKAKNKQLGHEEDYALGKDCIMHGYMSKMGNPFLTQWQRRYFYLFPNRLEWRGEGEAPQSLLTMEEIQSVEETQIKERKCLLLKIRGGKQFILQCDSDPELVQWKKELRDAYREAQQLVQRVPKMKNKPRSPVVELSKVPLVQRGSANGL
Experimental: Positive and negative control wells received an equal volume of DMSO. The final DMSO concentration in the assay is 1%.
The plate was placed in centrifuge equipped with a spin-bucket rotor and spun for 1 min at 1000 rpm.
GRK2 enzymatic reactions were initiated with the addition of 2 μL/well of 50 nM GRK2 in assay buffer. Plates were centrifuged for 1 min at 1000 rpm. For negative control wells, the order of reagent addition was reversed: 10 μL/well ADP detection mix (see below) was added first, followed by the addition of 2 μL/well of the GRK2 solution. Reaction mixtures were incubated at ambient temperature for 2 hours. Final concentrations of reagents in the assays were as follows:
Following incubation, the reactions were quenched with 10 μL/well of the Transcreener ADP detection mix. […] The plates were then centrifuged for 1 min at 1000 rpm.
Fluorescence polarization values of the reaction mixtures were read on a Safire plate reader after a 60 min incubation at ambient temperature. Excitation wavelength=590 nm; emission wavelength=650 nm.
The fluorescence polarization data were converted to % activity as follows:
% activity=(sample−NC)/(PC−NC)*100
where NC is the mean of negative control (ADP detection mix added prior to GRK2 addition), and PC is the mean of positive control (GRK2 reaction without inhibitor). IC50 values are determined from a 4-parameter fit, using the following equation:
Y=Bottom+(Top−Bottom)/(1+10^((Log IC50−X)*Hill slope))
where X=log10 of the compound concentration.

[2] = biological target: T1, GRK2; experiment: hGRK2 LANCE Ultra In Vitro Assay; assay type: biochemical
How it was run: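 TR-FRET kinase assay with 10 nM GRK2 preincubated 30 min with compound, then 200 nM ULight-peptide and 30 or 600 μM ATP in HEPES pH 7.5, 10 mM MgCl2, 1% DMSO; 120 or 60 min at ambient temperature respectively.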

[3] = Biological Example 1 GRK2 Lancer IC50 (μM), 10 nM GRK2, 30 or 600 μM ATP (not stated which), multiple measurements listed individually

SMILES	IC50 [1]	IC50 [2, 3]	IC50 [2]
COc1cccc(CN2C(=O)c3cc(-c4cn[nH]c4)ccc3C2CC#N)c1 (stereo not shown) [Compound 15]	< 0.005 µM	0.005 µM	–
COc1cccc([C@@H](C)N2Cc3ccc(-c4cn[nH]c4)cc3C2=O)c1 [Compound 13, (R)-2-(1-(3-methoxyphenyl)ethyl)-6-(1H-pyrazol-4-yl)isoindolin-1-one]	< 0.005 µM	–	< 0.005 µM
O=C(O)c1cccc(CN2Cc3ccc(-c4cn[nH]c4)cc3C2=O)c1 [Compound 18]	0.139 µM	–	–
CC(C)NC(=O)c1cccc(CN2Cc3ccc(-c4cn[nH]c4)cc3C2=O)c1 [Compound 19, N-isopropyl-3-[[1-oxo-6-(1H-pyrazol-4-yl)isoindolin-2-yl]methyl]benzamide]	< 0.005 µM	< 0.005 µM	–

Continued, in another order:

IC50 [1]	SMILES	IC50 [2, 3]	IC50 [2]
> 50 µM	COC(=O)c1cccc([C@@H](C)N2Cc3ccc(-c4cn[nH]c4)cc3C2=O)c1 [Compound 165]	–	–
1.46 µM	C[C@H](c1cccc2ccccc12)N1Cc2ccc(-c3cn[nH]c3)cc2C1=O [Compound 24]	–	–
0.08 µM	COc1cccc(CN2Cc3ccc(-c4ccnc(N)n4)cc3C2=O)c1 [Compound 4]	–	–
